Assays:
Lepeophtheirus salmonis = assay: Efficacy of medicated feed against an existing experimental sea lice infestation on Atlantic salmon post-smolts (Example 1); format: in vivo
Protocol: A randomized, blinded, parallel-group, negative-controlled study was conducted in which, the active ingredient was administered in medicated feed to laboratory-maintained Atlantic salmon (Salmo salar) post-smolts in seawater. Smolts were experimentally infested with sea lice (Lepeophtheirus salmonis) under laboratory conditions prior to being fed the medicated diet to assess the efficacy of the active ingredient in reducing the number of sea lice/fish.
Healthy Atlantic salmon post-smolts (n=750) were selected for enrollment and distributed sequentially across ten (10) study tanks. Fish were weighed individually during the allocation of fish to tanks on study day (SD)-95, with SD 0 serving as the first day of treatment. Fish were weighed on SD −2, +8, +18, +22, and +30. The fish weights on SD −2 were used to estimate the average weight of all fish and used to determine the feeding amount during the treatment period (SD 0−+6). A target of total of 10 fish/tank were lethally sampled, lice-counted, and weight and length were measured. The mean weight of fish in tanks on SD −2 was 829.9±161.7 g.
Atlantic salmon post-smolts were infested once with sea lice using an experimental challenge model. About 50 copepodids (Lepeophtheirus salmonis) per fish were added to each tank on SD −17. During the study the water temperature varied between 8 and 12° C. The water oxygen saturation was consistently above 80% throughout the study.
Five treatment groups were randomly assigned to ten study tanks so that there were 2 tanks per treatment group. Study personnel were blinded as to the identity of the treatments for each tank.
Sea lice were counted four times during the study. All sampled fish were euthanized and lice counted. The baseline count occurred on SD −2 (with 10 fish per tank), corresponding to ˜160 degree days (15 d) post-infestation. The time was sufficient for lice development to the chalimus stage. Count 1 occurred on SD +8 (with 20 fish per tank) corresponding to ˜260 degree days (25 d) post infestation and 2 days post treatment. The time was sufficient for lice development into chalimus and pre-adult stages in the control tanks. Count 2 occurred on SD +18 (with 20 fish per tank) corresponding to ˜360 degree days (35 d) post infestation and 12 days post treatment. The time was sufficient for lice development into adult males and females in the control tanks. Count 3 occurred on SD +22 (with 20 fish per tank) corresponding to ˜400 degree days (39 d) post infestation and 16 days post treatment. The time was sufficient for lice development into adult males and females with no chalimus stages present in the control tanks.
Medicated feed was prepared by dry coating commercially available fish feed pellets with a premix containing the active ingredient to reach a content of about 1.6, 4.0. 8.0 and 19.9 mg/kg. The fish pellets were then coated with feed grade herring fish oil at an inclusion rate of about 0.75% w/w (7.5 g/kg feed) The consumption rate of the medicated feed was set to 0.628% body weight.
Treatment efficacy was computed for total number of sea lice/fish and total number of mobile life stages, i.e., preadult & adult sea lice/fish for each post-treatment sea lice counting occasion. For the total number of attached/fish, treatment efficacy was computed at the first count post-treatment. Percent efficacy was computed using Abbott's formula for each treatment group compared to control as follows:
[formula] where MC and MT are the arithmetic means of sea lice counts in the untreated control and S-roxapin-treated groups, respectively.
Treatments were considered efficacious when the percent efficacy was ≥90% for treated groups compared to untreated control groups.
The mean sea lice abundance was reported for different parasite life stages (attached, mobile, and total (attached and mobile together)) and computed as the number of lice on salmon divided by the number of sampled fish per tank. […]

Lepeophtherius salmonis = conditions: 1.0 mg/kg/d in medicated feed to Atlantic salmon for 7 consecutive days; lice counted 10 days after end of treatment; cited from earlier work
sea lice = assay: First set of experiments: medicated feed over 7 consecutive days to salmon, sea lice infestation; format: in vivo; conditions: all dose rates 0.050, 0.125, 0.250 mg/kg/d in medicated feed over 7 consecutive days to salmon
Protocol: The inventors conducted a first set of experiments with administration in medicated feed over 7 consecutive days to salmon of 0.050, 0.125, 0.250 mg/kg/d to determine a non-therapeutic dosage for control or treatment of sea lice infestation. As these lower dosages represented a large reduction in concentration to that described in U.S. Pat. No. 9,920,037 (1.0 mg/kg/d) and, as well, represented concentrations well below the dosage for related IOB products for dogs, cats and poultry approved between 2014 and 2021 by such regulatory authorities as the U.S. Food and Drug Administration, Health Canada, and the European Medicines Agency, it was reasonable to expect to find a non-therapeutic dosage at the lower dosages tested.

[1] = 0.010 mg/kg/d in feed 7 d, 2 DPT
[2] = 0.010 mg/kg/d in feed 7 d, 12 DPT
[3] = 0.010 mg/kg/d in feed 7 d, 16 DPT
[4] = 0.025 mg/kg/d in feed 7 d, 2 DPT
[5] = 0.025 mg/kg/d in feed 7 d, 12 DPT
[6] = 0.025 mg/kg/d in feed 7 d, 16 DPT
[7] = 0.050 mg/kg/d in feed 7 d, 2 DPT
[8] = 0.050 mg/kg/d in feed 7 d, 12 DPT
[9] = 0.050 mg/kg/d in feed 7 d, 16 DPT
[10] = 0.125 mg/kg/d in feed 7 d, 2 DPT
[11] = 0.125 mg/kg/d in feed 7 d, 12 DPT
[12] = 0.125 mg/kg/d in feed 7 d, 16 DPT

## C#CCNC(=O)CNC(=O)c1sc(C2=NO[C@@](c3cc(Cl)c(Cl)c(Cl)c3)(C(F)(F)F)C2)cc1C [S-roxapin, (S)-3-methyl-N-(2-oxo-2-(prop-2-yn-1-ylamino)ethyl)-5-(5-(3,4,5-trichlorophenyl)-5-(trifluoromethyl)-4,5-dihydroisoxazol-3-yl)thiophene-2-carboxamide]
Lepeophtheirus salmonis; [1]
  Number of Attached Lice/Fish % Efficacy: 96.2%
  Number of Attached Lice/Fish Mean ± SD: 0.1 ± 0.3 lice/fish
  Number of Mobile Lice/Fish % Efficacy: 89.1%
  Number of Mobile Lice/Fish Mean ± SD: 1.7 ± 2.2 lice/fish
  Total Number of Lice/Fish % Efficacy: 90.3%
  Total Number of Lice/Fish Mean ± SD: 1.8 ± 2.4 lice/fish
Lepeophtheirus salmonis; [2]
  Number of Attached Lice/Fish Mean ± SD: 0.0 ± 0.0 lice/fish
  Number of Mobile Lice/Fish % Efficacy: 94.1%
  Number of Mobile Lice/Fish Mean ± SD: 1.1 ± 3.0 lice/fish
  Total Number of Lice/Fish % Efficacy: 94.1%
  Total Number of Lice/Fish Mean ± SD: 1.1 ± 3.0 lice/fish
Lepeophtheirus salmonis; [3]
  Number of Attached Lice/Fish Mean ± SD: 0.0 ± 0.0 lice/fish
  Number of Mobile Lice/Fish % Efficacy: 97.7%
  Number of Mobile Lice/Fish Mean ± SD: 0.5 ± 0.7 lice/fish
  Total Number of Lice/Fish % Efficacy: 97.7%
  Total Number of Lice/Fish Mean ± SD: 0.5 ± 0.7 lice/fish
Lepeophtheirus salmonis; [4]
  Number of Attached Lice/Fish % Efficacy: 98.5%
  Number of Attached Lice/Fish Mean ± SD: 0.1 ± 0.1 lice/fish
  Number of Mobile Lice/Fish % Efficacy: 98.8%
  Number of Mobile Lice/Fish Mean ± SD: 0.2 ± 0.3 lice/fish
  Total Number of Lice/Fish % Efficacy: 98.8%
  Total Number of Lice/Fish Mean ± SD: 0.2 ± 0.3 lice/fish
Lepeophtheirus salmonis; [5]
  Number of Attached Lice/Fish Mean ± SD: 0.1 ± 0.2 lice/fish
  Number of Mobile Lice/Fish % Efficacy: 99.9%
  Number of Mobile Lice/Fish Mean ± SD: 0.0 ± 0.1 lice/fish
  Total Number of Lice/Fish % Efficacy: 99.5%
  Total Number of Lice/Fish Mean ± SD: 0.1 ± 0.2 lice/fish
Lepeophtheirus salmonis; [6]
  Number of Attached Lice/Fish Mean ± SD: 0.0 ± 0.0 lice/fish
  Number of Mobile Lice/Fish % Efficacy: 99.9%
  Number of Mobile Lice/Fish Mean ± SD: 0.0 ± 0.1 lice/fish
  Total Number of Lice/Fish % Efficacy: 99.9%
  Total Number of Lice/Fish Mean ± SD: 0.0 ± 0.1 lice/fish
Lepeophtheirus salmonis; [7]
  Number of Attached Lice/Fish % Efficacy: 92.3%
  Number of Attached Lice/Fish Mean ± SD: 0.3 ± 0.3 lice/fish
  Number of Mobile Lice/Fish % Efficacy: 99.7%
  Number of Mobile Lice/Fish Mean ± SD: 0.1 ± 0.1 lice/fish
  Total Number of Lice/Fish % Efficacy: 98.4%
  Total Number of Lice/Fish Mean ± SD: 0.3 ± 0.3 lice/fish
Lepeophtheirus salmonis; [8]
  Number of Attached Lice/Fish Mean ± SD: 0.0 ± 0.0 lice/fish
  Number of Mobile Lice/Fish Mean ± SD: 0.1 ± 0.2 lice/fish
  Total Number of Lice/Fish % Efficacy: 99.6%
  Total Number of Lice/Fish Mean ± SD: 0.1 ± 0.2 lice/fish
Lepeophtheirus salmonis; [9]
  Number of Attached Lice/Fish Mean ± SD: 0.0 ± 0.0 lice/fish
  Number of Mobile Lice/Fish % Efficacy: 99.7%
  Number of Mobile Lice/Fish Mean ± SD: 0.1 ± 0.2 lice/fish
  Total Number of Lice/Fish % Efficacy: 99.7%
  Total Number of Lice/Fish Mean ± SD: 0.1 ± 0.2 lice/fish
Lepeophtheirus salmonis; [10]
  Number of Attached Lice/Fish % Efficacy: 93.8%
  Number of Attached Lice/Fish Mean ± SD: 0.2 ± 0.3 lice/fish
  Number of Mobile Lice/Fish % Efficacy: 99.8%
  Number of Mobile Lice/Fish Mean ± SD: 0.0 ± 0.1 lice/fish
  Total Number of Lice/Fish % Efficacy: 98.8%
  Total Number of Lice/Fish Mean ± SD: 0.2 ± 0.4 lice/fish
Lepeophtheirus salmonis; [11]
  Number of Attached Lice/Fish Mean ± SD: 0.0 ± 0.1 lice/fish
  Number of Mobile Lice/Fish % Efficacy: 100.0%
  Number of Mobile Lice/Fish Mean ± SD: 0.0 ± 0.0 lice/fish
  Total Number of Lice/Fish % Efficacy: 99.9%
  Total Number of Lice/Fish Mean ± SD: 0.0 ± 0.1 lice/fish
Lepeophtheirus salmonis; [12]
  Number of Attached Lice/Fish Mean ± SD: 0.1 ± 0.2 lice/fish
  Number of Mobile Lice/Fish % Efficacy: 99.9%
  Number of Mobile Lice/Fish Mean ± SD: 0.1 ± 0.2 lice/fish
  Total Number of Lice/Fish % Efficacy: 99.6%
  Total Number of Lice/Fish Mean ± SD: 0.1 ± 0.2 lice/fish
Lepeophtheirus salmonis; dosages of 0.025, 0.050 and 0.125 mg/kg/d in medicated feed over 7 consecutive days
  efficacy compared with the lowest dosage (0.010 mg/kg/d): significantly higher efficacy
Lepeophtheirus salmonis; medicated feed over 7 consecutive days to salmon, provisionally concluded
  observed minimum efficacious dosage relative to U.S. Pat. No. 9,920,037 (1.0 mg/kg/d): 20-40 times lower
Lepeophtherius salmonis
  efficacy against chalimus and pre-adult/adult stages of the sea louse: 100%
Sea lice
  effectiveness in reducing sea lice burdens: ~100%

Source: patent publication US12280040B2, “Compositions and methods of a dihydroisoxazole compound that reduces ectoparasite infestations on fish” (EVAH Atlantic Inc., priority 2023, dated 2025)
